Counter-ions that a name gives are not always drawn. Like-named read-outs stand apart in the source and are kept apart here.
How the values were obtained:
[1] = tested on: murine 6.5 cells (inner mitochondrial membrane potential); test: Mitochondrial membrane potential by TMRM fluorescence assay; type: cell-based, mouse; settings: TMRM 100 nM 20 min, control peak 403, syrosingopine pre-incubation 4 h (highest amount), FCCP pre-treatment 1 h (FIG. 11)
Description: Murine 6.5 cells were treated with TMRM (panels 1-6), and in addition pre-incubated with FCCP (panel 2), syrosingopine at 0.1 μM (panel 3), 0.5 μM (panel 4), 2 μM (panel 5) or at 5 μM (panel 6) and fluorescence intensity was measured. Thin lines: fluorescence intensity of control cells or FCCP-treated cells (panel 2). Heavy lines indicate cells pre-incubated additionally with syrosingopine (panels 3-6). X-axis indicates fluorescence intensity, Y-axis indicates relative cell numbers.
Murine 6.5 cells were treated for 20 min with the potentiometric fluorescent dye TMRM (tetramethylrhodamine methyl ester, AbD Serotec, 100 nM) and the fluorescence intensity was measured at 575 nm emission after excitation at 488 nm using a flow cytometer (CellLabQuanta, Beckman Coulter). This dye accumulates in the mitochondrial matrix when the inner membrane potential is more positive outside due to the extrusion of protons. […] The effect of syrosingopine was assessed by pre-incubating cells with increasing concentrations of syrosingopine for 4 h as indicated, followed by TMRM staining.

mouse mast cell line 6.5 [2] = test: AlamarBlue cell proliferation assay, mouse mast cell line 6.5; type: cell-based
Description: (§1) AlamarBlue conversion cell proliferation assay. […] All data points were performed in tripliclate.

mouse mast cell line 6.5 [3] = tested on: mouse mast cell line 6.5
cancer test cell lines = test: Interaction of rauwolfia-related compounds with metformin; type: cell-based
Source text: 6.5 cells show many features of oncogenic transformation such as loss of growth-factor (IL3) dependence and signaling pathway addiction. […]. These cells display exquisite sensitivity to many clinical drugs. […].

RPMI8226 cells [4] = test: AlamarBlue cell proliferation assay, RPMI8226; type: cell-based, human; settings: syrosingopine titration, metformin 5 mM, 3 days
Description: as §1

OPM2 cells [5] = test: AlamarBlue cell proliferation assay, OPM2; type: cell-based, human; settings: for growth inhibition, combined versus each compound singly: syrosingopine titration, metformin 5 mM, 3 days (FIG. 1B)
Description: as §1

OPM2 cells [6] = test: Apoptosis assay (annexin V / propidium iodide FACS), OPM2; type: cell-based, human; settings: 5 μM syrosingopine, 2 mM metformin, singly or combined, 3 days (FIG. 3)
Description: (§2) OPM2 and RPM18226 cells were seeded at a density of 100,000 cells/5 ml medium with addition of compounds. […] RPM18226: 2 μM syrosingopine (S), 1 mM metformin (M). […] Annexin V is an apoptotic marker and was detected using a FITC-coupled antibody on the FL1-channel. Propidium iodide (PI) exclusion staining for vital cells was detected simultaneously on the FL3-channel. For each measurement, the PI and annexin V negative cells represent the viable cell population (white bars). Early apoptotic cells are PI-negative, annexin V-positive (hatched bars) and late apoptotic cells are PI-positive, annexin V-positive (black bars). Bars are plotted on the Y-axis as a percentage of the total cell population.
(§3) Apoptosis was determined by Annexin V-FITC (Invitrogen) and propidium iodide counter-staining, and cells were analysed by FACS to distinguish between viable/early apoptotic/late apoptotic cell sub-populations. Cells were seeded at a density of 100,000 cells/5 ml medium with addition of compounds as indicated. 500 μl of culture was harvested after 3 days and the cells were washed and stained with PI/Annexin V before FACs analysis.

RPMI8226 cells [7] = test: Apoptosis assay (annexin V / propidium iodide FACS), RPMI8226; type: cell-based, human; settings: 2 μM syrosingopine, 1 mM metformin, singly or combined, 3 days (FIG. 3)
Description: as §2, §3

K562 cells = test: AlamarBlue cell proliferation assay, K562; type: cell-based, human; settings: syrosingopine titration, metformin 5 mM, 3 days (FIG. 1E)
Description: as §1

[8] = tested on: 6.5 cell tumors in DBA mice; settings: mouse, in vivo
Description: Drug treatment commenced when tumors reached 100 mm^2 in size. Mice were separated into treatment groups and injected intra-peritoneally with PBS (horizontal bars), syrosingopine (S, filled diamonds, 2 mg/kg body weight), metformin (M, filled triangles, 250 mg/kg body weight) and metformin plus syrosingopine (S+M, crossed squares) daily for 15 days. Mice were sacrificed when tumor size became excessive (day 15) and tumors were dissected for measurement. (A) Chart showing tumor area (in mm^2) measured over the course of the treatment, d=days. (B) Mean body weight (g) of the mice at the time of sacrifice. Figures (n) above each bar indicate the number of mice per treatment group.
4×10^56.5 cells were injected in 150 μl of PBS into the flanks of immuno-compatible DBA mice. Tumor progression was monitored and treatment was started when tumor area reached 100 mm^2 in size. Mice were injected intra-peritoneally daily with metformin (250 mg/kg body weight), syrosingopine (2 mg/kg body weight) or combined for 15 days before being sacrificed for tumor tissue measurements.

Jurkat cells = test: AlamarBlue cell proliferation assay, Jurkat; type: cell-based, human; settings: syrosingopine titration, metformin 5 mM, 3 days (FIG. 1D)
Description: as §1

HL60 cells = type: cell-based, human; settings: oligomycin at a concentration below 1 nM, 3 days (FIG. 10B)
Description: as §1

[9] = tested on: human peripheral blood leukocytes; test: Phytohaemagglutinin-stimulated T cell proliferation; type: cell-based; settings: PHA 10 μg/ml; day 3; syrosingopine titration with or without metformin 4 mM (FIG. 7, right)
Description: Human peripheral blood leukocytes were cultured in presence or absence of phytohaemagglutinin.
Normal human buffy coat cells were obtained from a local blood donation center in accordance with the ethical guidelines. 80 ml of blood was diluted with 200 ml of Iscove's medium and overlayed on a Ficoll gradient. The gradient was centrifuged at 1400×g for 5 minutes to separate the leukocyte fraction from erythrocytes. Cells were plated on coated tissue culture dishes for 1 hour to remove adherent cells, and the remaining suspension cells were collected by centrifugation and counted with a haemocytometer. 50,000 cells were seeded per well in 96-well dishes and compounds were added according to the various treatment regimes to a final medium volume of 150 μl. For stimulation, phytohemagglutinin was added to a final concentration of 10 μg/ml. At day 3, proliferation was determined by AlamarBlue assay.

[10] = 6.5 cells, agent at fixed, non- or minimally toxic concentration (FIG. 8) with increasing syrosingopine, 3 days

## N#CC(C#N)=NNc1ccc(OC(F)(F)F)cc1 [FCCP, Carbonyl cyanide-p-trifluoromethoxyphenylhydrazone]
[1]
  TMRM fluorescence peak: 42 arbitrary units
Mouse mast cell line 6.5 [2]
  synergistic killing with syrosingopine: induced synergistic killing

## O=C(CC(=O)C(F)(F)F)c1cccs1 [TTFA, 2-Thenoyltrifluoroacetone]
Mouse mast cell line 6.5 [2]; [10]
  synergistic killing with syrosingopine: Synergistic killing

## N#CC(=C(/N)Sc1ccccc1N)/C(C#N)=C(\N)Sc1ccccc1N [U0126]
Mouse mast cell line 6.5 [3]
  sensitivity of 6.5 cells to inhibitor: sensitive to nanomolar concentrations

## COC(=O)C1=CO[C@@H](C)[C@H]2CN3CCc4c([nH]c5ccccc45)[C@@H]3C[C@H]12 [ajmalicine]
Cancer test cell lines
  interaction with metformin: do not show significant interaction

## CCCCCC[C@H]1C(=O)O[C@H](C)[C@H](NC(=O)c2cccc(NC=O)c2O)C(=O)O[C@@H](C)[C@@H]1OC(=O)CC(C)C [antimycin A, Antimycin A]
Mouse mast cell line 6.5 [2]
  synergistic killing with syrosingopine: Synergistic killing

## COC(=O)[C@H]1[C@H]2C[C@H]3c4[nH]c5ccccc5c4CCN3C[C@@H]2CC[C@@H]1O.Cl [corynanthine HCl]
Cancer test cell lines
  interaction with metformin: do not show significant interaction

## CN(C)C(=N)NC(=N)N [metformin, 3-(diaminomethylidene)-1,1-dimethylguanidine hydrochloride]
RPMI8226 cells [4]
  growth inhibition, combined versus each compound singly: only a marginal effect
Mouse mast cell line 6.5 [2]; Mus musculus, Mast cell, 72 h, 6.5 cells, metformin alone at 5 mM, 3 days (FIG. 1A), read-out: inhibition of growth
  inhibition at 5000 µM: 20%
OPM2 cells [5]; OPM2
  growth inhibition, combined versus each compound singly: only a marginal effect
OPM2 cells [6]
  apoptotic induction (annexin V / PI): No apoptotic induction
RPMI8226 cells [7]
  apoptotic induction (annexin V / PI): No apoptotic induction
K562 cells
  growth inhibition, combined versus each compound singly: only a marginal effect
[8]
  body weight at sacrifice: no significant difference in body weight
Jurkat cells
  growth inhibition, combined versus each compound singly: only a marginal effect

## CC[C@@H]1/C=C/C=C/C[C@H](C)C(O)[C@](C)(O)C(=O)[C@H](C)[C@@H](O)[C@H](C)C(=O)[C@H](C)[C@@H](O)[C@H](C)/C=C/C(=O)O[C@H]2[C@@H](C)[C@@H](CC1)O[C@@]1(CC[C@@H](C)[C@@H](C[C@H](C)O)O1)[C@@H]2C (stereo partly drawn) [oligomycin, Oligomycin]
HL60 cells
  killing in combination with syrosingopine: kills human cancer lines
Mouse mast cell line 6.5 [2]; 6.5 cells, absence of syrosingopine, concentrations employed for synergistic killing, 3 days (FIG. 9)
  toxicity of the mitochondrial inhibitor alone: without toxic effect
Mouse mast cell line 6.5 [2]; [10]
  synergistic killing with syrosingopine: induced synergistic cell killing
OPM2 cells [5]; OPM2, oligomycin at a concentration below 1 nM, 3 days (FIG. 10C)
  killing in combination with syrosingopine: kills human cancer lines

## N=C(N)NC(=N)NCCc1ccccc1 [phenformin, 1-(diaminomethylidene)-2-(2-phenylethyl)guanidine]
Mouse mast cell line 6.5 [2]; 6.5 cells, concentrations up to 10 μM, 3 days (FIG. 6, left)
  growth inhibition, phenformin alone: no growth inhibition
Mouse mast cell line 6.5 [2]; 6.5 cells, phenformin 10 μM combined with increasing concentrations of syrosingopine, 3 days (FIG. 6, right)
  synergy with syrosingopine: strong synergistic effect

## COC(=O)[C@H]1[C@H]2C[C@H]3c4[nH]c5ccccc5c4CCN3C[C@H]2CC[C@@H]1O [rauwolscine HCl]
Cancer test cell lines
  interaction with metformin: do not show significant interaction

## COC(=O)[C@H]1[C@H]2C[C@@H]3c4[nH]c5cc(OC)ccc5c4CCN3C[C@H]2C[C@@H](OC(=O)/C=C/c2cc(OC)c(OC)c(OC)c2)[C@@H]1OC [rescinnnamine]
Cancer test cell lines
  interaction with metformin: do not show significant interaction

## COC(=O)[C@H]1[C@H]2C[C@@H]3c4[nH]c5cc(OC)ccc5c4CCN3C[C@H]2C[C@@H](OC(=O)c2cc(OC)c(OC)c(OC)c2)[C@@H]1OC [reserpine]
Mouse mast cell line 6.5 [2]; 6.5 cells, reserpine over a range of concentrations, metformin 5 mM (FIG. 4)
  interaction with metformin: No interaction
Cancer test cell lines
  interaction with metformin: do not show significant interaction
OPM2 cells [5]; OPM2 cells, reserpine over a range of concentrations, metformin 5 mM (FIG. 4)
  interaction with metformin: No interaction

## COc1ccc2c3c([nH]c2c1)[C@H]1C[C@H]2[C@H](C[C@@H](O)[C@H](OC)[C@H]2C(=O)O)CN1CC3 [reserpinnic acid]
Cancer test cell lines
  interaction with metformin: do not show significant interaction

## O=C([O-])CC(=O)[O-].[Na+].[Na+] [sodium malonate, Sodium malonate]
Mouse mast cell line 6.5 [2]; [10]
  synergistic killing with syrosingopine: Synergistic killing

## CCOC(=O)Oc1c(OC)cc(C(=O)O[C@@H]2C[C@@H]3CN4CCc5c([nH]c6cc(OC)ccc56)[C@H]4C[C@@H]3[C@H](C(=O)OC)[C@H]2OC)cc1OC [syrosingopine]
RPMI8226 cells [4]
  growth inhibition, combined versus each compound singly: only a marginal effect
[1]
  TMRM fluorescence peak: 955 arbitrary units
Mouse mast cell line 6.5 [2]; 6.5 cells, syrosingopine titration without metformin, 3 days (FIG. 1A)
  inhibition of growth, syrosingopine alone: virtually non-inhibitory
OPM2 cells [5]; OPM2
  growth inhibition, combined versus each compound singly: only a marginal effect
OPM2 cells [6]
  apoptotic induction (annexin V / PI): No apoptotic induction
RPMI8226 cells [7]
  apoptotic induction (annexin V / PI): No apoptotic induction
[9]
  inhibition of PHA-stimulated proliferation: considerably less so
K562 cells
  growth inhibition, combined versus each compound singly: only a marginal effect
[8]; DBA
  signs of overt toxicity: no significant difference in body weight between the treatment groups (FIG. 5B) or any signs of overt toxicity
[8]
  body weight at sacrifice: no significant difference in body weight
Jurkat cells
  growth inhibition, combined versus each compound singly: only a marginal effect

## COC(=O)[C@@H]1[C@H]2C[C@H]3c4[nH]c5ccccc5c4CCN3C[C@@H]2CC[C@@H]1O [yohimbine HCl]
Cancer test cell lines
  interaction with metformin: do not show significant interaction

## O=C(O)[C@@H]1[C@H]2C[C@H]3c4[nH]c5ccccc5c4CCN3C[C@@H]2CC[C@@H]1O [yohimbinic acid]
Cancer test cell lines
  interaction with metformin: do not show significant interaction

## Stavudine
Mouse mast cell line 6.5 [2]; [10]
  synergistic killing with syrosingopine: induced synergistic killing

Source: patent US8993587B2, “Combination of syrosingopine and mitochondrial inhibitors for the treatment of cancer and immunosuppression” (Universitat Basel, priority 2011, dated 2015)
